Measurements reported in PubChem BioAssay (NCI).
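Cultured in 96-well plates, cells were exposed to test compound for 48 hours across five concentrations. TGI is the concentration that stops growth completely.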

Tests used:
Test in all cases: growth of human tumour cells (NCI), 48 h
786-0 renal = system: 786-0 renal
CCRF-CEM leukemia = system: CCRF-CEM leukemia
COLO 205 colon = system: COLO 205 colon
HCT-15 colon = system: HCT-15 colon
HL-60(TB) leukemia = system: HL-60(TB) leukemia
HT29 colon = system: HT29 colon
K-562 leukemia = system: K-562 leukemia
MDA-MB-231 breast = system: MDA-MB-231 breast
MDA-MB-435 = system: MDA-MB-435
MOLT-4 leukemia = system: MOLT-4 leukemia
NCI-H460 lung = system: NCI-H460 lung
NCI-H522 lung = system: NCI-H522 lung
OVCAR-4 ovarian = system: OVCAR-4 ovarian
OVCAR-8 ovarian = system: OVCAR-8 ovarian
SNB-75 CNS = system: SNB-75 CNS
SW-620 colon = system: SW-620 colon
TK-10 renal = system: TK-10 renal
UACC-257 melanoma = system: UACC-257 melanoma
UACC-62 melanoma = system: UACC-62 melanoma

Row | SMILES | TGI (786-0 renal) [µM] | TGI (CCRF-CEM leukemia) [µM] | TGI (COLO 205 colon) [µM] | TGI (HCT-15 colon) [µM] | TGI (HL-60(TB) leukemia) [µM] | TGI (HT29 colon) [µM] | TGI (K-562 leukemia) [µM] | TGI (MDA-MB-231 breast) [µM] | TGI (MDA-MB-435) [µM] | TGI (MOLT-4 leukemia) [µM] | TGI (NCI-H460 lung) [µM] | TGI (NCI-H522 lung) [µM] | TGI (OVCAR-4 ovarian) [µM] | TGI (OVCAR-8 ovarian) [µM] | TGI (SNB-75 CNS) [µM] | TGI (SW-620 colon) [µM] | TGI (TK-10 renal) [µM] | TGI (UACC-257 melanoma) [µM] | TGI (UACC-62 melanoma) [µM]
1 | CCCCCCCCCCCCCCC(C(=O)[O-])[n+]1ccccc1 (stereo not drawn) | > 100 | > 100 | > 100 | > 100 | > 100 | > 100 | > 100 | > 100 | > 100 | > 100 | > 100 | > 100 | > 100 | > 100 | > 100 | > 100 | 28.8 | > 100 | > 100
2 | CC(=O)NC1C(O)C(O)C(CO)OC1n1nc(SCc2ccccc2)c(=O)[nH]c1=O (stereo not drawn) | > 100 | > 100 | > 100 | > 100 | > 100 | > 100 | > 100 | > 100 | > 100 | > 100 | > 100 | > 100 | > 100 | > 100 | > 100 | > 100 | > 100 | > 100 | > 100
3 | O=P1(N(CCCl)CCCl)Oc2c(Cl)cc(Cl)c(Cl)c2Cc2c(Cl)c(Cl)cc(Cl)c2O1 | > 100 | > 100 | 45.7 | > 100 | > 100 | > 100 | > 100 | > 100 | > 100 | > 100 | > 100 | > 100 | > 100 | > 100 | > 100 | > 100 | > 100 | > 100 | > 100
4 | c1cc2c(cc1NC1=NCCO1)CCCC2 | 16.7 | > 26.7 | 3.8 | 22.4 | 7.5 | 7.28 | > 24.5 | 6.1 | 4.1 | 9.67 | 15.7 | 18 | 71.2 | 12.5 | 35.3 | 47.3 | 52.5 | > 28.1 | 16.5
5 | CSC1=C(C(=O)N(COCC[Si](C)(C)C)c2ccccc2Br)CCC(C(C)(C)C)C1 (stereo not drawn) | 26.2 | > 100 | 25.7 | 26.1 | 11.8 | 64.4 | 29.1 | 30.5 | > 100 | 21.9 | 44.1 | 24.6 | > 100 | > 100 | > 100 | 41 | > 100 | 47.8 | 39.9
6 | CCCCCCCCCCCCCCCCOP(=O)(O)OP(=O)(O)OCC1OC(n2cnc3c(N)ncnc32)C(O)C1O (stereo not drawn) | > 100 | 86.6 | > 100 | > 100 | > 100 | > 100 | > 100 | > 100 | > 100 | > 100 | > 100 | 92.8 | > 100 | > 100 | 61.8 | > 100 | > 100 | > 100 | > 100
7 | Cc1nnc(N2C(=O)C(=Cc3ccc(Cl)cc3)N=C2c2ccc(Cl)cc2)nc1/C=C\c1ccc(N(C)C)cc1 | > 100 | > 100 | > 100 | > 100 | > 100 | > 100 | > 100 | > 100 | > 100 | > 100 | > 100 | > 100 | > 100 | > 100 | > 100 | > 100 | > 100 | > 100 | > 100
8 | CCCCCCCCCCCCCCCCCCNc1ccn(C2OC(COP(=O)(O)OCC(COP(=O)(O)OCC3OC(n4cc(C)c(=O)[nH]c4=O)CC3N=[N+]=[N-])OCCCCCCCCCCCCCCCCCC)C(O)C2O)c(=O)n1 (stereo not drawn) | > 100 | > 100 | > 100 | > 100 | > 100 | > 100 | > 100 | > 100 | > 100 | > 100 | > 100 | 96.5 | > 100 | > 100 | > 100 | > 100 | > 100 | > 100 | > 100
9 | Cc1c2ccccc2c(CSC(=N)N)c2ccccc12 | 0.745 | 0.0588 | 0.37 | 1.96 | 0.343 | 1.05 | 1.4 | 1.03 | 0.44 | 0.127 | 0.374 | 0.196 | 0.514 | 6.43 | 0.445 | 0.947 | 0.667 | 0.406 | 0.408
10 | COc1cc2c(NCCN(C)C)nc3c4cc5c(cc4ccc3c2cc1OC)OCO5 | 6.15 | 6.44 | 5.82 | 6.56 | 9.52 | 6.56 | 7.49 | 9.05 | 6.79 | 5.3 | 5.38 | 8.02 | 7.91 | 6.97 | 5.39 | 7.22 | 5.88 | 7.98 | 8.41
11 | CC[C@]1(Cc2ccc(OC)c(OC)c2)C=[N+]([O-])O[C@H](OC2CCCCC2c2ccccc2)[C@@H]1OC(C)=O (stereo partly drawn) | > 100 | 68.3 | 40.5 | > 100 | 40.9 | > 100 | > 100 | > 100 | > 100 | 63 | > 100 | > 100 | > 100 | > 100 | > 100 | > 100 | > 100 | > 100 | > 100
12 | NNC(=O)CC(=O)Nc1ccccc1Cl | > 100 | > 100 | > 100 | > 100 | > 100 | > 100 | > 100 | > 100 | > 100 | > 100 | > 100 | > 100 | > 100 | > 100 | > 100 | > 100 | > 100 | > 100 | > 100
